We go through twelve compounds from patent US5547951A, “Pyrido[2,3-b][1,4]benzoxazepin (and thiazepin)-6(5H)-ones and -thiones and their use in the prevention or treatment of HIV-1 infection” (Boehringer Ingelheim Pharamceuticals, Inc., priority 1994, dated 1996).

As usually defined, the inhibition is the drop in the measured response relative to a control, in per cent. Read a low inhibition as a response near the control.

In brackets after ≈: the same amount, converted by molar mass.

Series [1] has as its target T1, HIV-1 reverse transcriptase (Human immunodeficiency virus type 1 group M subtype B, UniProt P03367).
T1 construct: Reverse transcriptase enzyme from the LAV strain; made in house; host or cells: E. coli JM109, DNA clone pBRTprtl+ in expression vector pIBI21 (lac promoter)
The series is described as follows: Reverse Transcriptase (RT) Assay: inhibition of RNA-dependent DNA polymerase activity, cell-free, poly r(C)/oligo d(G) template, 3H-dGTP substrate. The class given is biochemical, Human Immunodeficiency Virus (HIV-1), LAV strain. As to conditions: @ 10 μg/ml; room temperature, 60 minutes. The source says:
Utilizing the Reverse Transcriptase (RT) Assay described below, compounds can be tested for their ability to inhibit the RNA-dependent DNA polymerase activity of HIV RT. Certain specific compounds, described in the Examples which appear below, were so tested. […]
Among the enzymes for which Human Immunodeficiency Virus (HIV-1) encodes is a reverse transcriptase (1), so-named because it transcribes a DNA copy from an RNA template. This activity can be quantitatively measured in a cell-free enzyme assay which has been previously described (2), and is based upon the observation that reverse transcriptase is able to use a synthetic template [poly r(C) primed with oligo d(G)] to transcribe a radio-labelled, acidprecipitable DNA strand utilizing ^3 3H-dGTP as a substrate. […]
a) Preparation of the enzyme
Reverse transcriptase enzyme from the LAV strain of Human Immuno- deficiency Virus (HIV-1) (1) was isolated from the bacterial strain JM109 (3) expressing the DNA clone pBRTprtl+ (2) which is under the control of the lac promotor in the expression vector pIBI21 (4). An overnight culture grown in 2XYT medium (37° C., 225 rpm) (5) supplemented with 100 μg/ml ampicillin for positive selection is inoculated at a 1:40 dilution into M9 medium supplemented with 10μg/ml thiamine, 0.5% casamino acids, and 50 μg/ml ampicillin (5). The culture is incubated (37° C., 225 rpm) until it reaches an 0D540 of 0.3-0.4. At that time the repressor inhibitor IPTG (isopropyl b-D-thiogalactopyranoside) is added to 0.5 mM and incubated for 2 additional hours. Bacteria are pelletted, resuspended in a 50mM Tris, 0.6mM EDTA, 0.375 M NaGl buffer and digested by the addition of lysozyme (1 mg/ml) for 30 minutes on ice. The cells are lysed by the addition to 0.2% NP-40 and brought to 1 M NAGl.
After removal of the insoluble debris by centrifugation, the protein is precipitated by the addition of 3 volumes of saturated aqueous ammonium sulfate. The enzyme is pelleted, resuspended in RT buffer (50 mM Tris pH 7.5, 1 mM EDTA, 5mM DTT, 0.1% NP-40, 0.1M NaCl, and 50% glycerol) and stored at -70° C. for further use. […]
b) Composition of 2X concentrated stock reaction mixture
The 2X concentrated stock reaction mixture is aliquoted and stored at -20° C. The mixture is stable and thawed for use in each assay. This enzyme assay has been adapted to a 96 well microtiter plate system, and has been previously described (6). Tris buffer (50 mM, pH 7.4), vehicle (solvent diluted to match the compound dilution), or compounds in vehicle are dispensed into 96-well microtiter plates (10 μl/well; 3 wells/compound). The HIV RT enzyme is thawed, diluted in 50 mM Tris pH 7.4 so that fifteen μl of diluted enzyme contain 0.001 Unit (one unit is that amount of enzyme to transform 1 micromole of substrate per minute at 25° C.), and 15 μ are dispensed per well. Twenty μl of 0.12-0.5M EDTA are added to the first three wells of the microtiter plate. EDTA thelares the Mg^++ present and prevents reverse transcription. This group serves as background polymerization which is subtracted from all other groups. Twenty-five μl of the 2X reaction mixture are added to all wells and the assay is allowed to incubate at room temperature for 60 minutes. The assay is terminated by precipitating the DNA in each well with 50 μl of 10% trichloracetic acid (TCA) in 1% sodium pyrophosphate. The microtiter plate is incubated for 15 minutes at 4° C. and the precipitate is fixed onto #30 glass fiber paper (Schletcher & Schuell) using a Skatron semi- automatic harvester. The filters are then washed with additional 5% TCA containing 1% sodium pyrophosphate, rinsed with 70% aqueous ethanol, dried, and transferred to scintillation vials (6). Each vial receives 2 mls of scintillation cocktail and is counted in a Beckman beta counter.
Calculations for percent inhibition are as follows [formula] References

Series [2] in a line: MTT assay for cellular cytotoxicity. Format: cell-based. As to conditions: human, H9 cells, five days, read-out: Cytotoxity Assay EC50. As for the experimental part:
In order to roughly assess the cytotoxicity of the compounds of formula I, several were tested in the MTT Cellular Cytotoxicity Assay described below. Compounds having a relatively high EC50 are preferred.
MTT ASSAY FOR CELLULAR CYTOTOXICITY
The MTT [3-(4,5-dimethylthiazol-2yl)-2,5 diphenyl tetrazolium bromide) assay is based on cleavage of tetrazolium bromide by metabolically active cells, resulting in a highly quantitative blue color. This assay has been previously described (1) but has been optimized for the purposes of the testing reported herein.
The H9 cell line (2), an established human lymphoma suspension cell line grown in RPMI 1640 supplemented with 10% fetal bovine serum is used as the target cell line in the assay. Cells (100μl) are plated in microtest plate wells at a concentration of 10^5 cells per ml in the presence of varying concentrations of inhibitor. The cells are incubated at 37° C in a humidified CO2 incubator. Five days later, 20 μl of MTT (5 mg/ml in RPMI 1640, sonicated, 0.2 micron filtered, and stored at 4° C.) is added to each well. After 4 hours additional incubation at 37° 60 μl of Triton-X is added to each well and thoroughly mixed to aid the solubiltzation of the crystals. Absolute ethanol (5μ) is added to remove bubbles, and the mixture is incubated for 30 minutes at 60° C. and immediately read on a plate reader (Dynatech) at a wavelength of 570 nm. […]

`C=C(Cl)CN1C(=O)c2ccccc2Oc2ncccc21` [Example 7, 5-(2-Chloro-2-propen-1-yl)pyrido[2,3-b][1,4]benzoxazepin-6(5H)-one] returned an inhibition at 10 µg/mL in series [1] of 66%.

Take `C=CCN1C(=O)c2cccc(C)c2Oc2ncccc21` [Example 10, 5-Allyl-10-methylpyrido[2,3-b][1,4]benzoxazepin-6(5H)-one]: in series [1], the inhibition at 10 µg/mL stood at 84%.

For `CN1C(=O)c2ccccc2Oc2ncccc21` [Example 3, 5-Methylpyrido[2,3-b][1,4]benzoxzepin-6(5H)-one], the inhibition at 10 µg/mL in series [1] was found to be 30%.

Turning to `CCC(C)N1C(=O)c2ccccc2Oc2ncccc21` (stereo not shown) [Example 4, 5-Sec-butylpyrido[2,3-b][1,4]benzoxazepin-6(5H) -one], the inhibition at 10 µg/mL in series [1] is 50%.

In series [1], `CSCCN1C(=O)c2ccccc2Oc2nc(Cl)ccc21` [Example 1, 2-Chloro-5-(methylthioethyl)pyrido[2,3-b][1,4]benzoxazepin-6(5H)-one] returned an inhibition at 10 µg/mL of 99%. Also, the CC50 at 120 h in series [2] amounted to 20 µg/mL (≈ 62.3 µM).

For the compound `CCC(=O)N1C(=O)c2cc(C)ccc2Oc2ncccc21` [Example 12, 8-Methyl-5-propionylpyrido[2,3-b][1,4]benzoxazepin-6(5H)-one], at 10 µg/mL the inhibition in series [1] was 49%.

Turning to `CC=CCN1C(=O)c2ccccc2Oc2ncccc21` [Example 9, 5-(2-Buten-1-yl)pyrido[2,3-b][1,4]benzoxazepin-6(5H) -one], testing at 10 µg/mL in series [1] gave an inhibition of 39%.

Consider `CN1C(=O)c2cc(N)ccc2Oc2ncccc21` [Example 6, 8-Amino-5-methylpyrido[2,3-b][1,4]benzoxazepin-6(5H)-one], for which the inhibition at 10 µg/mL in series [1] is 50%.

In series [1], `CCN1C(=O)c2ccc(C)cc2Oc2ncccc21` [Example 11, 5-Ethyl-9-methylpyrido[2,3-b][1,4]benzoxazepin-6(5H)-one] yielded an inhibition at 10 µg/mL of 30%.

For `C=CCN1C(=O)c2ccccc2Oc2nc(Cl)ccc21` [Example 2, 5-Allyl-2-chloropyrido[2,3-b][1,4]benzoxazepin-6(5H)-one], the inhibition at 10 µg/mL in series [1] came to 96%.

Consider `C=C(C)CN1C(=O)c2ccccc2Oc2ncccc21` [Example 8, 5-(2-Methyl-2-propen-1-yl)pyrido[2,3-b][1,4]benzoxazepin-6(5H)-one], for which, in series [1], the inhibition at 10 µg/mL worked out at 47%.

Consider `CCN1C(=O)c2cccc(C)c2Oc2ncccc21` [Example 5, 5-Ethyl-10-methylpyrido[2,3-b][1,4]benzoxazepin-6(5H)-one], for which, in series [1], 10 µg/mL produced 83% inhibition.
